In this test the target is Transient receptor potential vanilloid 1 (TRPV1) (Mus musculus, UniProt Q704Y3). The experiment in a line: whole-cell patch clamp of native TRPV1 currents in cultured mouse DRG neurons. It is filed as cell-based.
Sequence of Transient receptor potential vanilloid 1 (TRPV1) (Q704Y3 whole entry): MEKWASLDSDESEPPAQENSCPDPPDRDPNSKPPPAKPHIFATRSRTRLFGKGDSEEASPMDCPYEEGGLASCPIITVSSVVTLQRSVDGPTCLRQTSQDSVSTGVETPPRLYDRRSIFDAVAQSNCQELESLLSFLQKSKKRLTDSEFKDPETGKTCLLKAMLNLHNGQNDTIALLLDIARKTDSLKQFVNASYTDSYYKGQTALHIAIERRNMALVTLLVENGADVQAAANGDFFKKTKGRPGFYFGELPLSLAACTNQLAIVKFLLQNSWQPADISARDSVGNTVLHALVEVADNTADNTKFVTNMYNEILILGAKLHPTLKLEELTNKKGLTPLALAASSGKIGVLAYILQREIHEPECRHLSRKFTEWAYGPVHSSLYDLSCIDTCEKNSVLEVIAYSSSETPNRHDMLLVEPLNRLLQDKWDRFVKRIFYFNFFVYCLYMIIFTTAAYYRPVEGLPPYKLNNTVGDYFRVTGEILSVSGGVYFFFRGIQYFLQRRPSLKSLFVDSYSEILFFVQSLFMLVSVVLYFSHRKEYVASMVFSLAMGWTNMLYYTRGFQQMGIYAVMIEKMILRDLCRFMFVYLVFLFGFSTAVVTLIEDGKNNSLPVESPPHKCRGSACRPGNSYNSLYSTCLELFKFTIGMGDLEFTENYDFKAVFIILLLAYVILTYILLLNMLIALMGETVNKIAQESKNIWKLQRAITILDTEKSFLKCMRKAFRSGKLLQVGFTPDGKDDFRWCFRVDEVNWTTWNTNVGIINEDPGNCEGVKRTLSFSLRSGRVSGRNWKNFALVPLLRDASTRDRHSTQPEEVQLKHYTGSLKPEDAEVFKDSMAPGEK

`COc1cc(/C=C/C(=O)CC(=O)/C=C/c2ccc(O)c(OC)c2)ccc1O` [curcumin] came in with a half-inhibitory concentration (IC50) of 523 nM.

A word on the IC50: it is the concentration that inhibits the measured activity by half. A low value points to higher potency.

For the origin of these results see paper PMC6115343 (The Korean Journal of Physiology & Pharmacology : …, 2018).
